How the values were obtained:
POAAN [1] = test: B. Herbicidal post-emergence action on harmful plants (Tables B); type: in vivo, Poa annua
In short: (§1)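 Activity was scored visually as % damage (100% = dead, 0% = like untreated) about 3 weeks after treatment. Plants at the one-leaf stage, 2-3 weeks old, were sprayed with WP/EC formulations plus 0.5% additive (600 L/ha water, up to 1280 g/ha). Plants were grown in sandy loam in a greenhouse.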

LOLRI [2] = test: A. Herbicidal pre-emergence action on harmful plants (Tables A); type: in vivo, Lolium rigidum; details: visual grading after ca. 3 weeks vs untreated controls, 100% = plants have died off, 0% = as control plants
In short: (§2)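 Greenhouse pre-emergence test: compound applied to the soil surface at 1280 g/ha or below, and herbicidal effect rated visually at ca. 3 weeks on a 0–100% scale against untreated plants.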

STEME [3] = test: as above; type: in vivo, Stellaria media; details: visual grading after ca. 3 weeks vs untreated controls, 100% = plants have died off, 0% = as control plants
In short: as §2

DIGSA [4] = test: as above; type: in vivo, Digitaria sanguinalis
In short: as §2

ECHCG [5] = test: as above; type: in vivo, Echinochloa crus-galli; details: visual grading after ca. 3 weeks vs untreated controls, 100% = plants have died off, 0% = as control plants
In short: as §2

MATIN [6] = test: as above; type: in vivo, Matricaria inodora; details: visual grading after ca. 3 weeks vs untreated controls, 100% = plants have died off, 0% = as control plants
In short: as §2

SETVI [7] = test: B. Herbicidal post-emergence action on harmful plants (Tables B); type: in vivo, Setaria viridis; details: application rate 1280 g/ha; Table B5
Method: (§3) Seeds of mono- and dicotyledonous weed plants were placed in plastic pots in sandy loam soil (doubly sown with in each case one species of mono- or dicotyledonous weed plants per pot), covered with soil and cultivated in a greenhouse under controlled growth conditions. 2 to 3 weeks after sowing, the test plants were treated at the one-leaf stage. The compounds of the invention, formulated in the form of wettable powders (WP) or as emulsion concentrates (EC), were applied onto the green parts of the plants as aqueous suspension or emulsion with addition of 0.5% additive at a water application rate of 600 liters per hectare (converted). After the test plants had been kept in the greenhouse under optimum growth conditions for about 3 weeks, the activity of the preparations was rated visually in comparison to untreated controls. For example, 100% activity = the plants have died, 0% activity = like control plants. Tables B1 to B12, below, show the effects of selected compounds of the general formula (I) according to table 1 on various harmful plants and an application rate corresponding to 1280 g/ha or below obtained by the experimental procedure mentioned above. Table B1a: post-emergence activity at 1280g/ha against ABUTH in %

SETVI [8] = test: A. Herbicidal pre-emergence action on harmful plants (Tables A); type: in vivo, Setaria viridis; details: visual grading after ca. 3 weeks vs untreated controls, 100% = plants have died off, 0% = as control plants
In short: as §2

POAAN [9] = test: as above; type: in vivo, Poa annua
In short: as §2

LOLRI [10] = test: B. Herbicidal post-emergence action on harmful plants (Tables B); type: in vivo, Lolium rigidum; details: application rate 1280 g/ha; Table B3
Method: as §3

ZEAMX [11] = test: F. Post-emergence effects on crop plants (Tables F); type: in vivo, Zea mays; details: crop plant
Excerpt: (§4) Seeds of mono- and dicotyledonous weed plants and crop plants were sown, in plastic or organic planting pots, in sandy loam, covered with soil and grown in a greenhouse under controlled growth conditions. 2 to 3 weeks after sowing, the test plants were sprayed in the single-leaf stage. The compounds according to the invention, formulated in form of wettable powders (WP) or as emulsifiable concentrates (EC), were sprayed onto the green plant parts as aqueous suspension or emulsion, with the addition of 0.5% of an additive, at an application rate of 6001 of water/ha (converted). The test plants were placed in the greenhouse for ca. 3 weeks under optimum growth conditions, and then the effect of the preparations was assessed visually in comparison with untreated controls (herbicidal effect in percent (%): 100% effect = plants have died off, 0% effect = as control plants). Tables F1 to F5 below show the effects of selected compounds of the general formula (I) according to table 1 on various crop plants and an application rate corresponding to 320 g/ha or below obtained by the experimental procedure mentioned above. Table […]: post-emergence activity at 320g/ha against ZEAMX in %

ECHCG [12] = test: C. Herbicidal pre-emergence action, weed and crop plants (Tables C); type: in vivo, Echinochloa crus-galli; details: application rate 320 g/ha; Table C6a
Excerpt: (§5) Seeds of mono- and dicotyledonous weed plants and crop plants were sown, in plastic or organic planting pots, in sandy loam and covered with soil. The compounds according to the invention, formulated in the form of wettable powders (WP) or as emulsifiable concentrates (EC), were applied to the surface of the covering soil as aqueous suspension or emulsion, with the addition of 0.5% of an additive, at an application rate of 6001 of water/ha (converted). Following treatment, the pots were placed in a greenhouse and kept under optimum growth conditions for the test plants. The visual grading of the damage to the test plants was carried out after ca. 3 weeks in comparison to untreated controls (herbicidal effect in percent (%): 100% effect = plants have died off, 0% effect = as control plants). Tables C1 to C12 below show the effects of selected compounds of the general formula (I) according to table 1 on various harmful plants and an application rate corresponding to 320 g/ha or below obtained by the experimental procedure mentioned above. Table C1: pre-emergence activity at 320g/ha against KCHSC in %

TRZAS = test: F. Post-emergence effects on crop plants (Tables F); type: in vivo, Triticum aestivum; details: application rate 80 g/ha, crop plant
Excerpt: as §4

MATIN [13] = test: C. Herbicidal pre-emergence action, weed and crop plants (Tables C); type: in vivo, Matricaria inodora; details: application rate 320 g/ha; Table C8
Excerpt: as §5

ALOMY [14] = test: as above; type: in vivo, Alopecurus myosuroides; details: application rate 320 g/ha; Table C2a
Excerpt: as §5

ALOMY [15] = test: A. Herbicidal pre-emergence action on harmful plants (Tables A); type: in vivo, Alopecurus myosuroides
In short: as §2

VIOTR = test: C. Herbicidal pre-emergence action, weed and crop plants (Tables C); type: in vivo, Viola tricolor; details: application rate 320 g/ha; Table C12a
Excerpt: as §5

BRSNW [16] = test: F. Post-emergence effects on crop plants (Tables F); type: in vivo, Brassica napus; details: application rate 80 g/ha, crop plant
Excerpt: as §4

GLXMA [17] = test: as above; type: in vivo, Glycine max; details: application rate 320 g/ha, crop plant
Excerpt: as §4

ZEAMX [18] = test: D. Pre-emergence effects on crop plants (Tables D); type: in vivo, Zea mays; details: crop plant; application rate 80 g/ha; Table D1b
Excerpt: (§6) Seeds of mono- and dicotyledonous weed plants and crop plants were sown, in plastic or organic planting pots, in sandy loam and covered with soil. The compounds according to the invention, formulated in the form of wettable powders (WP) or as emulsifiable concentrates (EC), were applied to the surface of the covering soil as aqueous suspension or emulsion, with the addition of 0.5% of an additive, at an application rate of 6001 of water/ha (converted).
(§7) Following treatment, the pots were placed in a greenhouse and kept under optimum growth conditions for the test plants. The visual grading of the damage to the test plants was carried out after ca. 3 weeks in comparison to untreated controls (herbicidal effect in percent (%): 100% effect = plants have died off, 0% effect = as control plants).
(§8) Tables D1 to D5 below show the effects of various compounds of the general formula (I) according to Table 1 on various crop plants and an application rate corresponding to 320 g/ha or below obtained by the experimental procedure mentioned above in Biological Examples, Section C. Table D1a: pre-emergence activity at 320g/ha against ZEAMX in %

BRSNW [19] = test: D. Pre-emergence effects on crop plants (Tables D); type: in vivo, Brassica napus; details: application rate 80 g/ha, crop plant
Excerpt: as §6, §7, §8

DIGSA [20] = test: C. Herbicidal pre-emergence action, weed and crop plants (Tables C); type: in vivo, Digitaria sanguinalis; details: application rate 320 g/ha; Table C5a
Excerpt: as §5

GLXMA [21] = test: D. Pre-emergence effects on crop plants (Tables D); type: in vivo, Glycine max; details: crop plant; application rate 80 g/ha; Table D4b
Excerpt: as §6, §7, §8

STEME [22] = test: B. Herbicidal post-emergence action on harmful plants (Tables B); type: in vivo, Stellaria media; details: application rate 1280 g/ha; Table B6
In short: as §1

VERPE = test: as above; type: in vivo, Veronica persica; details: application rate 1280 g/ha; Table B11a
In short: as §1

ECHCG [23] = test: as above; type: in vivo, Echinochloa crus-galli; details: application rate 1280 g/ha; Table B2a
In short: as §1

MATIN [24] = test: as above; type: in vivo, Matricaria inodora
In short: as §1

[25] = application rate 1280 g/ha, Table B7a
[26] = application rate 1280 g/ha, Table A12a
[27] = application rate 80 g/ha, Table A7c
[28] = application rate 320 g/ha, Table A7b
[29] = application rate 1280 g/ha, visual grading after ca. 3 weeks vs untreated controls, 100% = plants have died off, 0% = as control plants
[30] = application rate 1280 g/ha, Table A9a

Compound | post-emergence activity against POAAN (POAAN [1]; [25]) [%] | pre-emergence activity against LOLRI (LOLRI [2]; application rate 320 g/ha) [%] | pre-emergence activity against LOLRI (LOLRI [2]; application rate 1280 g/ha) [%] | pre-emergence activity against STEME (STEME [3]; application rate 320 g/ha) [%] | pre-emergence activity against STEME (STEME [3]; application rate 1280 g/ha) [%] | pre-emergence activity against DIGSA (DIGSA [4]; [26]) [%] | pre-emergence activity against ECHCG (ECHCG [5]; application rate 320 g/ha) [%] | pre-emergence activity against ECHCG (ECHCG [5]; application rate 1280 g/ha) [%] | pre-emergence activity against MATIN (MATIN [6]; application rate 1280 g/ha) [%] | pre-emergence activity against SETVI (SETVI [8]; application rate 320 g/ha) [%] | pre-emergence activity against SETVI (SETVI [8]; application rate 1280 g/ha) [%] | pre-emergence activity against POAAN (POAAN [9]; [27]) [%] | pre-emergence activity against POAAN (POAAN [9]; [28]) [%] | pre-emergence activity against POAAN (POAAN [9]; [29]) [%] | post-emergence activity against LOLRI (LOLRI [10]) [%] | pre-emergence activity against ALOMY (ALOMY [15]; [30]) [%] | also measured
COCc1c(C(=O)N2CCCC2Cc2c(F)cccc2F)cnn1C (racemic) [Example I-124] | 90 | 90 | 100 | 90 | 90 | 90 | 90 | 100 | 100 | 90 | 90 | 90 | 100 | 100 | 90 |  | post-emergence activity against SETVI (SETVI [7]): 90%
Cn1cc(C(=O)N2CCCC2Cc2ccccc2F)c(COCC(F)F)n1 (racemic) [Example I-044] |  | 90 | 90 |  | 90 | 100 | 90 | 100 | 90 |  | 90 | 90 | 100 | 100 |  | 90 | post-emergence activity against ZEAMX in % (ZEAMX [11]; application rate 80 g/ha): 0%; post-emergence activity against ZEAMX in % (ZEAMX [11]; application rate 320 g/ha): 0%; pre-emergence activity against ECHCG (ECHCG [12]): 90%; post-emergence activity against TRZAS in % (TRZAS): 0%; pre-emergence activity against MATIN (MATIN [13]): 90%; pre-emergence activity against ALOMY (ALOMY [14]): 90%; pre-emergence activity against DIGSA (DIGSA [4]; application rate 320 g/ha, Table A12b): 90%; pre-emergence activity against VIOTR (VIOTR): 90%; post-emergence activity against BRSNW in % (BRSNW [16]): 0%; post-emergence activity against GLXMA in % (GLXMA [17]): 0%; pre-emergence activity against ZEAMX (ZEAMX [18]): 0%; pre-emergence activity against BRSNW in % (BRSNW [19]): 0%; pre-emergence activity against DIGSA (DIGSA [20]): 90%; pre-emergence activity against GLXMA (GLXMA [21]): 0%
COCc1nn(C)cc1C(=O)N1CCCC1Cc1ccccc1Br (racemic) [Example I-018] | 90 | 100 | 100 | 90 | 90 | 100 | 90 | 100 | 90 | 100 | 100 | 100 | 100 | 100 | 90 | 100 | post-emergence activity against POAAN (POAAN [1]; application rate 320 g/ha, Table B7b): 90%; pre-emergence activity against LOLRI (LOLRI [2]; application rate 80 g/ha): 90%; post-emergence activity against STEME (STEME [22]): 90%; pre-emergence activity against ALOMY (ALOMY [15]; application rate 320 g/ha, Table A9b): 90%; pre-emergence activity against ECHCG (ECHCG [5]; application rate 80 g/ha): 90%; pre-emergence activity against MATIN (MATIN [6]; application rate 80 g/ha): 90%; pre-emergence activity against MATIN (MATIN [6]; application rate 320 g/ha): 90%; post-emergence activity against VERPE (VERPE): 90%; post-emergence activity against ECHCG (ECHCG [23]): 90%; post-emergence activity against MATIN (MATIN [24]; application rate 320 g/ha, Table B4b): 90%; post-emergence activity against MATIN (MATIN [24]; application rate 1280 g/ha, Table B4a): 90%

Source: patent publication EP4417602A1, “SUBSTITUTED PYRAZOLE CARBOXAMIDES, SALTS THEREOF AND THEIR USE AS HERBICIDALLY ACTIVE SUBSTANCES” (Bayer AG, priority 2023, dated 2024)
